Experimental data: ChEMBL document CHEMBL5728931, “Inhibitors of phosphoglycerate dehydrogenase (PHGDH) and uses thereof” (2022)

Molecular target: T1, D-3-phosphoglycerate dehydrogenase (Homo sapiens, UniProt O43175)
T1 sequence (O43175 whole entry): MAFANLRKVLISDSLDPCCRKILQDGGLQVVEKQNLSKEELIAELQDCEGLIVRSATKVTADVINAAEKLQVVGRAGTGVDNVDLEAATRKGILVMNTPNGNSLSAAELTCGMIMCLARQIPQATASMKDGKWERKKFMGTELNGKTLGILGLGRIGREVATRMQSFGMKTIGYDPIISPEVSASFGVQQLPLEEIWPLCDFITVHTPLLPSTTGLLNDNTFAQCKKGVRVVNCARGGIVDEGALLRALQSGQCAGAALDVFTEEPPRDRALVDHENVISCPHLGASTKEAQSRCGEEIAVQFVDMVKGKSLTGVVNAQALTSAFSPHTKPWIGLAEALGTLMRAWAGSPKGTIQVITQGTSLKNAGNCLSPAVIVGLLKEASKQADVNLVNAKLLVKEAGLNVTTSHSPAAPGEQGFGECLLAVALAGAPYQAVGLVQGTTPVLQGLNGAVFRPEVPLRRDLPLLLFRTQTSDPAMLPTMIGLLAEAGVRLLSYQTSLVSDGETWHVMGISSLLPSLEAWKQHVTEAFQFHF
Assay: Enzyme Assay: PHGDH assay buffer contained 50 mM TEA pH 8.0, 10 mM MgCl2, 0.05% BSA, and 0.01% Tween-20. PHGDH enzyme buffer consisted of assay buffer with 20 nM PHGDH and 0.2 mg/mL diaphorase. PHGDH substrate buffer contained 0.3 mM NAD 1.25 mM glutamate, 0.1 mM 3-phosphoglycerate, 0.2 mM resazurin, 1 μM PSAT1, and 1 μM PSPH. qHTS was performed in 1536-well plates dispensed with a BioRAPTR FRD. Each well contained equal volumes of substrate buffer […]. Plates were read at 0 minutes and 20 minutes at room temperature with a ViewLux uHTS Microplate Imager (PerkinElmer). Follow-up assays were performed in black 384-well plates (Greiner) in 20 μL of enzyme buffer to which compounds were added in dose-response with an HP D300 digital dispenser (Hewlett-Packard), followed by addition of 20 μL of substrate buffer. Plates were incubated at room temperature (25° C.) and read at 0 and 20 minutes with a Spectramax M5 plate reader (Molecular Devices) in fluorescence intensity mode with a λex=550 nm and λem=600 nm (emission cutoff=590 nm).

IC50: > 20 µM
SMILES: Cc1cc(C)nc(NC(=S)N2CCN(c3cncnc3)CC2)c1
